Laboratory results: US20040133938A1, “Use of lipoic acid in plant culture media” (priority 2002, published 2004)

Test system: MicroTom cotyledon explants
Assay: Transient GUS expression in MicroTom cotyledon explants
Assay type: cell-based, Lycopersicon esculentum
Conditions: for % High transient expression / % Low transient expression / % No transient expression: GUS, after 5 days on selection media
Description: Cotyledon explants were isolated from seedlings 7 days after sowing seeds on Davis Germination medium. Cotyledon explants were prepared by bathing them in 6 mL of TXD liquid medium (4.3 g/L MS salts, 2 mL/L Gamborg's B-5 500× salts, 4 mg/L pCPA (p-chlorophenoxyactic acid), 0.005 mg/L kinetin, and 30 g/L sucrose) to prevent desiccation and trimming them at both ends using a #15 feather blade. Immediately after the trimming, the cotyledon explants were gently placed on “feeder plates” containing UC2PC medium (2.2 g/L MS salts, 2.2 mL/L, Gamborg's B-5 500× salts, 0.2 mg/L 2,4-D, 4 mg/L pCPA, 0.1 mg/L kinetin, 30 g/L sucrose, 0.2 g/L potassium phosphate, 10 g/L agar, 8 mL/L acetosyringone (4.91 mg/mL), and 4 mL galacturonic acid (53.05 mg/mL)). The “feeder plates” are made by overlaying 2 mL of tobacco suspension cells and a sterile Whatman filter on the plates containing UC2PC medium. The cotyledon explants were gently poked with a sharp forceps (ASIM5311, Stainless French, made in Switzerland). Usually six to ten pokes were made per explant depending the size of cotyledons. Right after poking, the cotyledons were inoculated with Agrobacterium containing pMON15715 (FIG. 1) by adding 3 mL of the adjusted Agrobacterium solution on top of the cotyledons. The plates were incubated for 10 min at room temperature, and the Agrobacterium solution was aspirated with a sterile pipette. The cotyledons were then co-cultured for 2 days at 23-24° C. under a 16-h photoperiod. The co-culture plates were placed in plastic bags to keep the humidity, which is preferable for MicroTom growth.
Two days after co-cultivation, cotyledons were transferred to shoot induction medium SI-2 (4.3 g/L MS salts, 2 mL/L, Gamborg's B-5 500× salts, 30 g/L sucrose, 10 g/L agar, 500 mg/L carbenicillin, 100 mg/L cefotaxime, 0.1 mg/L IAA, and 2 mg/L zeatin riboside) supplemented with 10 μM of lipoic acid and 100 mg/L kanamycin. Three to four weeks after the induction stage, the cotyledons formed buds or shoots. Cotyledons with buds or shoots were separated by individual event and transferred to, shoot elongation medium E2 (SI-2 medium without IAA), supplemented with 100 mg/L kanamycin for two to four weeks. All culture plates were placed in a culture box, placed inside a plastic bag, and cultured at 23-24° C. under a 16 h photoperiod.
At the same time the tissue browning severity was measured, transient expression of the gus gene was scored. High transient expression was defined as an explant having more than 30% of the pokes that produced GUS blue spots. Low transient expression was defined as an explant having less than 30% of the pokes that produced GUS blue spots about 5 days after culturing on selection medium. Nontransient expression was determined as an explant having no GUS blue spot. With the lipoic acid treatments at the concentrations of 10 and 50 μM, the percentage of explants having high transient expression doubled from 30% (non-lipoic acid treatment) up to 60.9% (Table 2). […] When lipoic acid was used in the selection process at the concentrations of 10, 50 and 100 μM, 100% of explants transiently expressed the GUS gene, but without lipoic acid or lipoic acid at the concentration of 5 μM, 20% and 9.5% of explants had no GUS transient expression.

SMILES: O=C(O)CCCCC1CCSS1 (centres unmarked) [lipoic acid, 1,2-dithiolane-3-pentanoic acid]
- % High transient expression (5 μM lipoic acid): 42.9%
- % Low transient expression (5 μM lipoic acid): 47.6%
- % No transient expression (5 μM lipoic acid): 9.5%
- % High transient expression (10 μM lipoic acid): 60.9%
- % Low transient expression (10 μM lipoic acid): 39.1%
- % No transient expression (10 μM lipoic acid): 0%
- % High transient expression (50 μM lipoic acid): 56.5%
- % Low transient expression (50 μM lipoic acid): 43.5%
- % No transient expression (50 μM lipoic acid): 0%
- % High transient expression (100 μM lipoic acid): 34.8%
- % Low transient expression (100 μM lipoic acid): 65.2%
- % No transient expression (100 μM lipoic acid): 0%
- % of explants that transiently expressed the GUS gene (lipoic acid at 10, 50 and 100 μM in the selection process): 100%
- increase of the percentage of explants having high level of transient expression (summary, MicroTom transformation): 2 fold
